Laboratory results reported in patent US20260224563A1, “CRYSTALLINE FORMS OF 6-(3-((5-CHLORO-2-METHOXYPYRIDINE)-3-SULFONAMIDO)-2,6-DIFLUOROPHENYL)-N-METHYLIMIDAZO[1,5-A]PYRAZINE-1-CARBOXAMIDE AND METHODS FOR USING THE SAME” (HIBERCELL, INC., priority 2023, published 2026).
Like-named read-outs stand apart in the source and are kept apart here.

Experiment: Pharmacokinetics of HC-7366 in male and female beagle dogs following IV and oral administration of HC-7366-K (plasma and urine, LC-MS/MS)
Format: in vivo, Beagle Dog
Design: AUC(0-t)/D: unit not given here
Conditions: for AUC(0-inf) / AUC(0-t) / FPO / AUC(0-t)/D / t1/2: mean n = 3; for AUC(0-t): t = 48 h; for FPO: based on AUC(0-inf); for Cmax: suspension of Form III; for bioavailability: read-out: Mean oral bioavailability (FPO); for half-life: read-out: terminal half-life (t1/2) (converted); for Emesis: at 1 hour post dose
Method: The objective of this study was to characterize the pharmacokinetics of HC-7366 in male and female beagle dogs following intravenous (IV) and oral (PO) administration of the potassium salt of the compound of formula (I), which may be referred to in this Example as HC-7366-K.
The IV solution formulation of HC-7366-K contained “5% (v/v) DMSO and 95% (v/v) Captisol (20% w/v) in PBS (pH 7.4)”, and was administered […] dose at 0.5 mg free acid/kg.
The PO suspension formulation of HC-7366-K is a suspension of Form III of the potassium salt of the compound of formula (I) (see Example 6) and contained “0.5% (w/v) methylcellulose (400 cp) in water”, and was administered orally at 1 mg free acid/kg, 10 mg free acid/kg, 50 mg free acid/kg, 150 mg free acid/kg, respectively.
After dosing, blood samples were collected at various time points. Plasma and urine was harvested and analysed by LC-MS/MS to characterize the PK profiles of HC-7366.
HC-7366-K was stored at room temperature. The compound used in this study was HC-7366-K. All doses, concentrations and supporting data are expressed in terms of free acid. The molecular weight conversion factor from HC-7366-K to free acid was 1.11.
HC-7366-K was formulated as an IV solution at a target dose level of 0.5 mg/mL in “5% (v/v) DMSO and 95% (v/v) Captisol (20% w/v) in PBS (pH 7.4)”.
HC-7366-K was formulated as a PO suspension of Form III of the potassium salt of the compound of formula (I) (see Example 6) at a target dose concentration of 0.25 mg/mL, 2.5 mg/mL, 12.5 mg/mL and 37.5 mg/mL in “0.5% (w/v) methylcellulose (aq.) (400 cp) in water” respectively.
The dose was administered via intravenous and oral gavage at the target dose volume of 1, and 4 mL/kg, respectively. All animals had free access to water, were fasted overnight prior to dosing and fed approximately 2 hours after dosing. The IV dose and PO dose at 1 mg/kg were administered to the same dogs as a cross-over design. The PO dose was administered 10 days after the IV dose. The PO doses at 10, 50 and 150 mg/kg were administered to individual animals.
Following IV administration, blood samples (ca 0.3 mL) were collected from the venepuncture of peripheral veins except the dosing vein. Blood samples were collected pre dose and at 0.083 h, […], 0.5 h, 1 h, 2 h, 4 h, 8 h, […], 30 h, and 48 h post dose.
Following PO administration, blood samples (ca 0.3 mL) were collected from the venepuncture of peripheral veins. Blood samples were collected pre dose and at 0.25 h, 0.5 h, 1 h, 2 h, 4 h, 8 h, 24 h, 30 h, and 48 h post dose.
Blood samples were collected into tubes containing K2EDTA as anticoagulant. The acceptable time ranges for blood collection are shown below. […]. Samples were stored in a freezer set to maintain a temperature at or below −80° C. prior to analysis. The residual blood cells were discarded.
Urine samples were collected on cold packs into clean bottles and the cold packs were checked during the day and at each sampling interval. At the end of the collection interval, the volume of urine was recorded and then each sample was well mixed and maintained on wet ice throughout processing and then stored frozen at […]75±15° C. until analysis.
The plasma and urine concentration of HC-7366 was determined by protein precipitation with acetonitrile followed by liquid chromatography with mass spectrometric detection (LC MS/MS). Sample preparation was conducted by adding 50 uL plasma or 50 uL urine to 200 uL of acetonitrile containing dexamethasone as an analytical internal standard. There was no formal validation data to support the assay.
Calibration standards were prepared in male, female beagle dog plasma or urine using HC-7366 Free acid. Calibration standards were freshly prepared on the day of analysis.
Parameters were estimated using Phoenix (WinNonlin) pharmacokinetic software version 6.1.0 using a non-compartmental approach consistent with IV and PO routes of administration. […]

[1] = Female Beagle dog, IV 0.5 mg/kg, plasma
[2] = Female Beagle dog, PO 1 mg/kg, plasma
[3] = Female Beagle dog, PO 10 mg/kg, plasma
[4] = Female Beagle dog, PO 50 mg/kg, plasma
[5] = Female Beagle dog, PO 150 mg/kg
[6] = Female Beagle dog, PO 150 mg/kg, plasma
[7] = dog, plasma, female beagle dogs, oral 1 mg/kg
[8] = dog, Male Beagle dogs, IV 0.5 mg/kg, HC-7366 in plasma
[9] = dog, Male Beagle dogs, PO 1 mg/kg, HC-7366 in plasma
[10] = dog, Male Beagle dogs, PO 10 mg/kg, HC-7366 in plasma
[11] = dog, Male Beagle dogs, PO 50 mg/kg, HC-7366 in plasma
[12] = dog, Male Beagle dogs, PO 150 mg/kg, HC-7366 in plasma
[13] = plasma, female beagle dog, oral 10 mg/kg
[14] = plasma, female beagle dog, oral 50 mg/kg
[15] = plasma, female beagle dog, oral 150 mg/kg
[16] = plasma, male beagle dog, oral 1 mg/kg
[17] = plasma, male beagle dog, oral 10 mg/kg
[18] = plasma, male beagle dog, oral 50 mg/kg
[19] = plasma, male beagle dog, oral 150 mg/kg

- AUC(0-inf) [1]: 85.7 µg·h/mL
- AUC(0-t) [1]: 81.1 µg·h/mL
- FPO (Female Beagle dog, PO 1 mg/kg): 99%
- AUC(0-t)/D (Female Beagle dog, PO 1 mg/kg): 156383
- AUC(0-inf) [2]: 170 µg·h/mL
- t1/2 [2]: 13 h
- AUC(0-t) [2]: 156 µg·h/mL
- FPO (Female Beagle dog, PO 10 mg/kg): 84%
- AUC(0-t)/D (Female Beagle dog, PO 10 mg/kg): 126414
- AUC(0-inf) [3]: 1440 µg·h/mL
- t1/2 [3]: 14 h
- Tmax (Female Beagle dog, PO 10 mg/kg, range n = 3): 0.50 to 1.0 h
- AUC(0-t) [3]: 1260 µg·h/mL
- FPO (Female Beagle dog, PO 50 mg/kg): 63%
- AUC(0-t)/D (Female Beagle dog, PO 50 mg/kg): 97510
- AUC(0-inf) [4]: 5370 µg·h/mL
- t1/2 [4]: 14 h
- AUC(0-t) [4]: 4880 µg·h/mL
- FPO [5]: 32%
- AUC(0-t)/D [5]: 49629
- AUC(0-inf) [6]: 8260 µg·h/mL
- t1/2 [6]: 14 h
- AUC(0-t) [6]: 7440 µg·h/mL
- AUC(0-t)/D (Male Beagle dogs, IV 0.5 mg/kg): 155094
- FPO (Male Beagle dogs, PO 1 mg/kg): 73%
- AUC(0-t)/D (Male Beagle dogs, PO 1 mg/kg): 116097
- t1/2 (Male Beagle dogs, PO 10 mg/kg, HC-7366 in plasma): 15 h
- FPO (Male Beagle dogs, PO 10 mg/kg): 83%
- AUC(0-t)/D (Male Beagle dogs, PO 10 mg/kg): 126074
- t1/2 (Male Beagle dogs, PO 50 mg/kg, HC-7366 in plasma): 17 h
- FPO (Male Beagle dogs, PO 50 mg/kg): 58%
- AUC(0-t)/D (Male Beagle dogs, PO 50 mg/kg): 85797
- t1/2 (Male Beagle dogs, PO 150 mg/kg, HC-7366 in plasma): 11 h
- FPO (Male Beagle dogs, PO 150 mg/kg): 21%
- AUC(0-t)/D (Male Beagle dogs, PO 150 mg/kg): 34480
- Tmax (Male Beagle dogs, PO 150 mg/kg, range n = 3): 1.0 to 4.0 h
- Tmax (dog, plasma, Male Beagle dogs, PO 1 mg/kg, range n = 3, read-out: tmax): 0.25 to 0.5 h
- Tmax (dog, plasma, Male Beagle dogs, PO 10 mg/kg, range n = 3, read-out: tmax): 0.5 h
- Tmax (dog, plasma, Male Beagle dogs, PO 50 mg/kg, range n = 3, read-out: tmax): 0.5 to 1 h
- clearance (dog, plasma, female Beagle dogs, intravenous 0.5 mg/kg, read-out: Clearance (CL)): 5.84 mL/h/kg
- Vd (dog, plasma, female Beagle dogs, intravenous 0.5 mg/kg, read-out: volume of distribution at steady state (Vss)): 0.084 L/kg
- Cmax [7]: 10.7 µg/mL
- bioavailability [7]: 99%
- half-life [7]: 13 h
- AUC(0-inf) [8]: 85.6 µg·h/mL
- AUC(0-t) [8]: 77.5 µg·h/mL
- AUC(0-inf) [9]: 123 µg·h/mL
- AUC(0-t) [9]: 116 µg·h/mL
- AUC(0-inf) [10]: 1420 µg·h/mL
- AUC(0-t) [10]: 1260 µg·h/mL
- AUC(0-inf) [11]: 4930 µg·h/mL
- AUC(0-t) [11]: 4290 µg·h/mL
- AUC(0-inf) [12]: 5470 µg·h/mL
- AUC(0-t) [12]: 5170 µg·h/mL
- half-life (dog, female Beagle dogs, intravenous 0.5 mg/kg, plasma HC-7366, mean n=3): 12 h
- half-life (dog, male beagle dogs, intravenous 0.5 mg/kg, plasma HC-7366, mean n=3): 14 h
- gender differences in the PK parameters (male versus female beagle dogs): no notable gender differences
- Tmax (plasma, Female Beagle dog, PO 1 mg/kg, range n = 3, read-out: tmax): 1 to 2 h
- Tmax (plasma, Female Beagle dog, PO 50 mg/kg, range n = 3, read-out: tmax): 2 to 4 h
- Tmax (plasma, Female Beagle dog, PO 150 mg/kg, range n = 3, read-out: tmax): 0.5 to 1 h
- Cmax [13]: 87 µg/mL
- Tmax (plasma, female beagle dog, oral 10 mg/kg, three animals, read-out: time post dose at which Cmax was observed (Tmax)): 0.5 to 1 h
- bioavailability [13]: 84%
- half-life [13]: 14 h
- Cmax [14]: 246 µg/mL
- bioavailability [14]: 63%
- half-life [14]: 14 h
- Cmax [15]: 350 µg/mL
- bioavailability [15]: 32%
- half-life [15]: 14 h
- Cmax [16]: 10.2 µg/mL
- bioavailability [16]: 73%
- half-life [16]: 12 h
- Cmax [17]: 94.3 µg/mL
- bioavailability [17]: 83%
- half-life [17]: 15 h
- Cmax [18]: 227 µg/mL
- bioavailability [18]: 58%
- half-life [18]: 17 h
- Cmax [19]: 280 µg/mL
- Tmax (plasma, male beagle dog, oral 150 mg/kg, three animals, read-out: time post dose at which Cmax was observed (Tmax)): 1 to 4 h
- bioavailability [19]: 21%
- half-life [19]: 11 h
Structure (SMILES): CNC(=O)c1ncn2cc(-c3c(F)ccc(NS(=O)(=O)c4cc(Cl)cnc4OC)c3F)ncc12 [HC-7366-K, 6-(3-((5-chloro-2-methoxypyridine)-3-sulfonamido)-2,6-difluorophenyl)-N-methylimidazo[1,5-a]pyrazine-1-carboxamide]
- Emesis (female beagle dog, oral 150 mg/kg): Emesis was observed
- Emesis (male beagle dog, oral 150 mg/kg): Emesis was observed
- dose proportionality of AUC (AUC/D values) (oral, between 1 and 50 mg/kg, beagle dogs): generally increased in proportional to dose level
